In ChEMBL document CHEMBL2203036, “Discovery of 1-[2-(2,4-dimethylphenylsulfanyl)phenyl]piperazine (Lu AA21004): a novel multimodal compound for the treatment of major depressive disorder” (J Med Chem, 2011):

What was measured:
[1] = target: T1, 5-hydroxytryptamine receptor 3A (Homo sapiens, UniProt P46098); test: Displacement of [3H]granisetron from human 5HT3A receptor expressed in HEK293 cells by filter binding assay; format: cell-based
T1 sequence (P46098 whole entry): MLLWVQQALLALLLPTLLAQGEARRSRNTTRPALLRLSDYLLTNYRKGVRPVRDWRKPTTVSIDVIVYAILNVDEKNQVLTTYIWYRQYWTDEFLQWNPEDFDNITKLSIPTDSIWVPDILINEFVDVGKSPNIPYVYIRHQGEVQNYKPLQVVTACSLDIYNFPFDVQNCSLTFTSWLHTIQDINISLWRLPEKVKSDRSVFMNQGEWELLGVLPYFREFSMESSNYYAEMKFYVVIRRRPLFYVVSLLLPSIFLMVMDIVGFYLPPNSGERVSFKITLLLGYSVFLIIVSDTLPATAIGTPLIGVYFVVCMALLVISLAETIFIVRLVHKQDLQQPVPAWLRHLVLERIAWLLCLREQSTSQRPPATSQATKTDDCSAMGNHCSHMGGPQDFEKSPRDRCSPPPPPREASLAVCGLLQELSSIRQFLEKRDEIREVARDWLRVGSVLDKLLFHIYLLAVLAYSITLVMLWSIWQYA

Liver microsomes [2] = test: Intrinsic clearance in rat liver microsomes at 1 uM after 60 mins by LC-MS/MS analysis; format: ADME, Microsome; details: 1 h
Liver microsomes [3] = test: Intrinsic clearance in human liver microsomes at 1 uM after 60 mins by LC-MS/MS analysis; format: ADME, Microsome; details: 1 h
Cytochrome P450 2C9 = Cytochrome P450 2C9 (Homo sapiens, UniProt P11712); test: Inhibition of human recombinant CYP2C9 using dibenzylfluorescein after 45 mins by fluorescence spectrophotometric analysis; format: ADME
Rattus norvegicus [4] = organism: Rattus norvegicus; test: Selectivity ratio of IC50 for NET to IC50 for SERT in rat synaptosomes; details: Brain
Rattus norvegicus [5] = organism: Rattus norvegicus; test: Selectivity ratio of IC50 for DAT to IC50 for SERT in rat synaptosomes; details: Brain
[6] = Inhibition of NET-mediated [3H]NE in rat synaptosomes by scintillation counting; format: subcellular, Brain
[7] = target: T2, Sodium-dependent dopamine transporter (Rattus norvegicus, UniProt P23977); test: Inhibition of DAT-mediated [3H]DA in rat synaptosomes by scintillation counting; format: subcellular, Brain
Cytochrome P450 2D6 = Cytochrome P450 2D6 (Homo sapiens, UniProt P10635); test: Inhibition of human recombinant CYP2D6 using 3-[2-(N,N-diethyl-N-methylamino)ethyl]-7-methoxy- 4-methylcoumarin after 45 mins by fluorescence spectrophotometric analysis; format: ADME
[8] = target: Sodium-dependent serotonin transporter (Rattus norvegicus, UniProt P31652); test: Inhibition of SERT-mediated [3H]5HT uptake in rat synaptosomes by scintillation counting; format: subcellular, Brain
Cytochrome P450 1A2 = target: T3, Cytochrome P450 1A2 (Homo sapiens, UniProt P05177); test: Inhibition of human recombinant CYP1A2 using 7-ethoxy-3-cyanocoumarin after 28 mins by fluorescence spectrophotometric analysis; format: ADME
T3 sequence (P05177 whole entry): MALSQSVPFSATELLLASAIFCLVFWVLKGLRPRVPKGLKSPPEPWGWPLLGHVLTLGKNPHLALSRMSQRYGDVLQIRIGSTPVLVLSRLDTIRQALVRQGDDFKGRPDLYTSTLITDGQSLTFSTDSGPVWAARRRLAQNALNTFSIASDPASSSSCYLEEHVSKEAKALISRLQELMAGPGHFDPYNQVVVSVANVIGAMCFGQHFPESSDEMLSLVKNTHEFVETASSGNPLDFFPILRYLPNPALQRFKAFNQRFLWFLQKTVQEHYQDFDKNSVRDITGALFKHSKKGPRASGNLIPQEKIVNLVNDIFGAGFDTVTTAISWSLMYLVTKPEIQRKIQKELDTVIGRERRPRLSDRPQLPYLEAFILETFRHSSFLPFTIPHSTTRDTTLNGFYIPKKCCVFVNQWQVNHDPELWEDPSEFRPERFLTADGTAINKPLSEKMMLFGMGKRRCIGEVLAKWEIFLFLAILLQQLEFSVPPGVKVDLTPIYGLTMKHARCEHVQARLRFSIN

[9] = target: T4, 5-hydroxytryptamine receptor 1A (Homo sapiens, UniProt P08908); test: biochemical; format: cell-based, HEK293
T4 sequence (P08908 whole entry): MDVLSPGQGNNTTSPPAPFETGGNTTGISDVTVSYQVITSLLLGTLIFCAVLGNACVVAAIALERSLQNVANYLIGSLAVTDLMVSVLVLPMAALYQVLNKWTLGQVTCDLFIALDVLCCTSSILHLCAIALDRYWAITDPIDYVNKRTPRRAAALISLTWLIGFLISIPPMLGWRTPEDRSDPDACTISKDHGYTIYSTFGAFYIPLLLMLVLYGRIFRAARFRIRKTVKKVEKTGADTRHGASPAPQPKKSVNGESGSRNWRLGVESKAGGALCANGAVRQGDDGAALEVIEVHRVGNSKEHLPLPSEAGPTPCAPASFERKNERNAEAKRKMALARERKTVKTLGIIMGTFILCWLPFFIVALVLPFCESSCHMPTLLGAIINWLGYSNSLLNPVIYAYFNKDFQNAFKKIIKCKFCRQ
Description: Displacement of [3H]5-carboxamidotryptamine to human 5HT1A expressed in HEK293 cells by filter binding assay

Cytochrome P450 3A4 = Cytochrome P450 3A4 (Homo sapiens, UniProt P08684); test: Inhibition of human recombinant CYP3A4 using resorufin benzyl ether after 30 mins by fluorescence spectrophotometric analysis; format: ADME
Rattus norvegicus [10] = test: Antidepression activity in sc dosed Harlan rat assessed as increase in extracellular 5HT level in ventral hippocampus region measured up to 180 mins by microdialysis method relative to vehicle-treated control; format: functional
[11] = target: 5-hydroxytryptamine receptor 2C (Homo sapiens, UniProt P28335); test: Binding affinity to human 5HT2C receptor
[12] = target: Alpha-1A adrenergic receptor (Rattus norvegicus, UniProt P43140); test: Binding affinity to rat alpha1 adrenergic receptor
[13] = Oral bioavailability in rat at 2 mg/kg; format: ADME, organism-based; details: in vivo
[14] = Inhibition of rat NET
[15] = target: T2, Sodium-dependent dopamine transporter; test: Inhibition of rat DAT
Rattus norvegicus [16] = organism: Rattus norvegicus; test: Selectivity ratio of IC50 for rat DAT to IC50 for SERT in rat synaptosomes; details: Brain
Rattus norvegicus [17] = organism: Rattus norvegicus; test: Selectivity ratio of IC50 for rat NET to IC50 for SERT in rat synaptosomes; details: Brain
Rattus norvegicus [18] = test: Hepatic clearance in rat at 1 mg/kg, iv; format: ADME, organism-based, Liver; design: dose 1 mg/kg, route intravenous; details: in vivo

Cytochrome P450 3A4, sequence (P08684 whole entry): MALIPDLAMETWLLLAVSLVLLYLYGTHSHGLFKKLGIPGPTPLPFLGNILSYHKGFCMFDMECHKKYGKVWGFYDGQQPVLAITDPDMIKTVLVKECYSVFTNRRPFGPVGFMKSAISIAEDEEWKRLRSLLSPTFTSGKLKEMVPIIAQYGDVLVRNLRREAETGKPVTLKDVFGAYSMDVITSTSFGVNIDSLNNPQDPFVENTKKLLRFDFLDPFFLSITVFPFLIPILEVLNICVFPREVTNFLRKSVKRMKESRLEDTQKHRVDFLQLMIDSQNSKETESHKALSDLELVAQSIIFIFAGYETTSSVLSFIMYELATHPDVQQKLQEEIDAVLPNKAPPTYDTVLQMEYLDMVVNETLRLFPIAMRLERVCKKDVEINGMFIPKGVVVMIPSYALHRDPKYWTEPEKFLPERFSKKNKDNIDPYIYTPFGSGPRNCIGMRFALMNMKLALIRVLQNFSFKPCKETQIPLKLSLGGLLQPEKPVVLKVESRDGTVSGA
Cytochrome P450 2C9, sequence (P11712 whole entry): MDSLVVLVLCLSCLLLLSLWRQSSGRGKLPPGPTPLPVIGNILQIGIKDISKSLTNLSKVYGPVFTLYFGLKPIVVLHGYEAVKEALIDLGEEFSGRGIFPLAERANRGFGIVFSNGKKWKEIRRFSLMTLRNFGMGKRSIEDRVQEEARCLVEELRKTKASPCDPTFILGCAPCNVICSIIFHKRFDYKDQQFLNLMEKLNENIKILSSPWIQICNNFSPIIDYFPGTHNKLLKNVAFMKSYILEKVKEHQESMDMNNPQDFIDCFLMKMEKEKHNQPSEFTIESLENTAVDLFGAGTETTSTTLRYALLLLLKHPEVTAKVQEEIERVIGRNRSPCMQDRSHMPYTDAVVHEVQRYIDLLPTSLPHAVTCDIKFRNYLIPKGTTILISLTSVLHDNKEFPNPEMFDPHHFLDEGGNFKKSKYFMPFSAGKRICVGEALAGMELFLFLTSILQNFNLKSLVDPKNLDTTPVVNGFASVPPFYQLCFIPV
T2 sequence (P23977 whole entry): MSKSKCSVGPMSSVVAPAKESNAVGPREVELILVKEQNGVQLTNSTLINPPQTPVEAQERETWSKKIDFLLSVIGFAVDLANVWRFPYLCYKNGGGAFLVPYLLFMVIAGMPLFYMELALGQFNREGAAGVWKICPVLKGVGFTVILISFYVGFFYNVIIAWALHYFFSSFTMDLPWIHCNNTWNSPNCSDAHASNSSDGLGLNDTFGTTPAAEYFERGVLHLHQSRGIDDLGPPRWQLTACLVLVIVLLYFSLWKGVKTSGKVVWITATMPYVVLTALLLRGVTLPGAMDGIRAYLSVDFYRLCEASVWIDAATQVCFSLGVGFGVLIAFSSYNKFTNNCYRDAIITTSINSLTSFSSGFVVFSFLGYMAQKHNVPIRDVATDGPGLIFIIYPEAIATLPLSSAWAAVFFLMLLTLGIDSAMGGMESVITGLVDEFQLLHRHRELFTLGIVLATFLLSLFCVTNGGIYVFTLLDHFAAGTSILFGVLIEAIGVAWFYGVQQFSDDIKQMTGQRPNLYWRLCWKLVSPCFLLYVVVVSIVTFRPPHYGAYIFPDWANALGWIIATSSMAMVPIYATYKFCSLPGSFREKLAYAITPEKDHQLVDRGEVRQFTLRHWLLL
Sodium-dependent serotonin transporter, sequence (P31652 whole entry): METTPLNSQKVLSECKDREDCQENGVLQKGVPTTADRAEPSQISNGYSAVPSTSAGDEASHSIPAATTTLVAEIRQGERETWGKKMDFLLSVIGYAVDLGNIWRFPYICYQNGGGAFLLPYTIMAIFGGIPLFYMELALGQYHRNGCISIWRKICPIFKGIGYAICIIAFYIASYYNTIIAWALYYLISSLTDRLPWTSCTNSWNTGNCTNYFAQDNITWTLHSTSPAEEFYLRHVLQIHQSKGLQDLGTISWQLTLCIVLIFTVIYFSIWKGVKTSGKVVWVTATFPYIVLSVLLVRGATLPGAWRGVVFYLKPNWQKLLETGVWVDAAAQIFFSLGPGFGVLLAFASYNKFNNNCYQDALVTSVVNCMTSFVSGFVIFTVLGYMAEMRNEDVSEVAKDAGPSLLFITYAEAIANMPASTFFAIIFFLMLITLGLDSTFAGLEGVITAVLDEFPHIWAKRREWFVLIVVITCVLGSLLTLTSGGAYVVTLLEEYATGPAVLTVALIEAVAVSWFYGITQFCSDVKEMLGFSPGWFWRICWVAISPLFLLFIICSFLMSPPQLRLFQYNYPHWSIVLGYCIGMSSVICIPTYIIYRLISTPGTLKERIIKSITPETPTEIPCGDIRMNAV
Cytochrome P450 2D6, sequence (P10635 whole entry): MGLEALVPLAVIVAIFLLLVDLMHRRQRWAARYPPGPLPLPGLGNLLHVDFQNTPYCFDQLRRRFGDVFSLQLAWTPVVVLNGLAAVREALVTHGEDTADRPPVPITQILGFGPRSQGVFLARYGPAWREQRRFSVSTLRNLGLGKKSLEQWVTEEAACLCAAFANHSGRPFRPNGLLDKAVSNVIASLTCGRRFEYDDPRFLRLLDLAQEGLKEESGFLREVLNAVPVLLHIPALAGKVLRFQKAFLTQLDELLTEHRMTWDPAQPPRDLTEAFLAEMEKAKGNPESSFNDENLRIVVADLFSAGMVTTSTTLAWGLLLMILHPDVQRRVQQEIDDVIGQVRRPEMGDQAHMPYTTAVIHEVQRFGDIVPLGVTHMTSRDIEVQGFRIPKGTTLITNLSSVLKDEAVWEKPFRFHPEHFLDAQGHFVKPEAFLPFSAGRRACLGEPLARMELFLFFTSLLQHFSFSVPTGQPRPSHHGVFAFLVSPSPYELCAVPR
5-hydroxytryptamine receptor 2C, sequence (P28335 whole entry): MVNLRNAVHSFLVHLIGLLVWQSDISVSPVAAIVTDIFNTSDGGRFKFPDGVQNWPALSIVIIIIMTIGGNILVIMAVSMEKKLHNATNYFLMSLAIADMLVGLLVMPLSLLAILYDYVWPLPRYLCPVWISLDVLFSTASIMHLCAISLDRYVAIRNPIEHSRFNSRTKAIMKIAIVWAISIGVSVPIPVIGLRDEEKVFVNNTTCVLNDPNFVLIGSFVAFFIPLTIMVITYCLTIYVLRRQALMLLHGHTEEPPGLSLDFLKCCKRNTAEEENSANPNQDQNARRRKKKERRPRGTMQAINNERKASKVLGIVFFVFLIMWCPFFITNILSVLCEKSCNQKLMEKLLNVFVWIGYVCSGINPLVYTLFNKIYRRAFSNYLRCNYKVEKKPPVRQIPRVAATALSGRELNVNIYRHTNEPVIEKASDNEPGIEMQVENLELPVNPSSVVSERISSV
Alpha-1A adrenergic receptor, sequence (P43140 whole entry): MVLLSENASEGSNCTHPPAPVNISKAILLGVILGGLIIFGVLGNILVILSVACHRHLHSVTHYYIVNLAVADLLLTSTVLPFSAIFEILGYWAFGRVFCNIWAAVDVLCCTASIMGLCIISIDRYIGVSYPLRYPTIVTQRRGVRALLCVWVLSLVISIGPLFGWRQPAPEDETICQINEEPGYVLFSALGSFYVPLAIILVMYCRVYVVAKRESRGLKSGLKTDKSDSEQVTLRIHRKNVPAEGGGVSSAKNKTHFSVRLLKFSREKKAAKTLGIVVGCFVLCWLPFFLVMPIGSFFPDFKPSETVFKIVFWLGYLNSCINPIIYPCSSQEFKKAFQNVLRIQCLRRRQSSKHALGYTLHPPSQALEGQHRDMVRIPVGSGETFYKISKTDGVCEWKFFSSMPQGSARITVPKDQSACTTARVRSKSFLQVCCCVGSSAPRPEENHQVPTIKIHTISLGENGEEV

SMILES | Ki [1] | IC50 [8] | Ki [9] | also measured
Cc1ccc(Sc2ccccc2N2CCNCC2)cc1C.Cl | 33 nM | 5.8 nM | 53 nM | CLH (Liver microsomes [2]): 290 mL/min; CLH (Liver microsomes [3]): 0.5 L/min; IC50 (Cytochrome P450 2C9): 34000 nM; Ratio IC50 (Rattus norvegicus [4]): 150; Ratio IC50 (Rattus norvegicus [5]): 21; IC50 [6]: 880 nM; IC50 [7]: 120 nM; IC50 (Cytochrome P450 2D6): 2800 nM; IC50 (Cytochrome P450 1A2): 26000 nM; IC50 (Cytochrome P450 3A4): 11000 nM
Clc1cccc(Sc2ccccc2N2CCNCC2)c1Cl |  |  |  | IC50 (Cytochrome P450 2C9): 40000 nM; Ratio IC50 (Rattus norvegicus [4]): 7; Ratio IC50 (Rattus norvegicus [5]): 1
Fc1ccc(Sc2ccccc2N2CCNCC2)cc1 | 53 nM | 67 nM | 39 nM | 
Cc1ccc(Sc2ccc(C)cc2N2CCNCC2)c(C)c1 | 150 nM | 25 nM |  | 
Cc1cccc(Sc2ccccc2N2CCNCC2)c1 | 64 nM | 54 nM | 100 nM | 
COc1ccc(Sc2ccccc2N2CCNCC2)cc1 | 36 nM | 8 nM | 130 nM | 
Cc1ccc(Sc2ccccc2N2CCNCC2)cc1.Cl | 56 nM | 18 nM | 44 nM | CLH (Liver microsomes [2]): 260 mL/min; CLH (Liver microsomes [3]): 1.1 L/min; IC50 (Cytochrome P450 2C9): 40000 nM; Ratio IC50 (Rattus norvegicus [4]): 25; Ratio IC50 (Rattus norvegicus [5]): 6.1; IC50 [6]: 460 nM; IC50 [7]: 110 nM; IC50 (Cytochrome P450 2D6): 2700 nM; IC50 (Cytochrome P450 1A2): 40000 nM; IC50 (Cytochrome P450 3A4): 16000 nM
COc1cc(C)ccc1Sc1ccccc1N1CCNCC1 | 17 nM | 11 nM | 210 nM | 
COc1ccc(Sc2ccccc2N2CCNCC2)c(Cl)c1 | 12 nM | 4.3 nM | 94 nM | 
Cl.Clc1ccc(Sc2ccccc2N2CCNCC2)c(Cl)c1 | 26 nM | 5.2 nM | 78 nM | CLH (Liver microsomes [2]): 38 mL/min; CLH (Liver microsomes [3]): 0.5 L/min; IC50 (Cytochrome P450 2C9): 34000 nM; Ratio IC50 (Rattus norvegicus [4]): 23; Ratio IC50 (Rattus norvegicus [5]): 48; IC50 [6]: 120 nM; IC50 [7]: 250 nM; IC50 (Cytochrome P450 2D6): 900 nM; IC50 (Cytochrome P450 1A2): 27000 nM; IC50 (Cytochrome P450 3A4): 4400 nM
CN(C)CCC[C@@]1(c2ccc(F)cc2)OCc2cc(C#N)ccc21 [ESCITALOPRAM] |  |  |  | Activity (Rattus norvegicus [10]): 700%
Cc1ccc(Sc2ccc(Cl)cc2)c(N2CCNCC2)c1 | 500 nM | 9.5 nM | 2500 nM | 
COc1ccc(Sc2ccc(C)cc2N2CCNCC2)cc1 | 190 nM | 7.9 nM | 4000 nM | Ki [11]: < 100 nM; Ki [12]: < 100 nM
c1ccc(Sc2ccccc2N2CCNCC2)cc1 | 64 nM | 390 nM | 30 nM | 
Cc1ccc(Sc2cccc(C)c2N2CCNCC2)c(C)c1 | 160 nM | 44 nM | 420 nM | 
CC(C)(C)c1ccc(Sc2ccccc2N2CCNCC2)cc1 | 450 nM | 2100 nM | 2500 nM | 
O=C1CC2(CCCC2)CC(=O)N1CCCCN1CCN(c2ncccn2)CC1 [BUSPIRONE] | > 10000 nM |  |  | 
COc1ccc(Sc2ccccc2N2CCNCC2)cc1OC | 86 nM | 15 nM | 160 nM | 

SMILES | Ki [1] | IC50 [8] | Ki [9] | also measured
COc1cccc(Sc2ccccc2N2CCNCC2)c1OC |  | 37 nM |  | 
Cc1ccc(Oc2ccccc2N2CCNCC2)c(C)c1 | 270 nM | 250 nM | 65 nM | 
Cc1ccc(Sc2ccc(F)cc2)c(N2CCNCC2)c1 | 440 nM | 68 nM | 1100 nM | 
COc1ccccc1Sc1ccccc1N1CCNCC1 | 52 nM | 330 nM | 59 nM | 
Cc1ccc(Sc2ccccc2N2CCNCC2)c(Cl)c1.Cl | 7.3 nM | 9.7 nM | 78 nM | CLH (Liver microsomes [2]): 120 mL/min; CLH (Liver microsomes [3]): 0.6 L/min; IC50 (Cytochrome P450 2C9): 40000 nM; Ratio IC50 (Rattus norvegicus [4]): 35; Ratio IC50 (Rattus norvegicus [5]): 33; IC50 [6]: 340 nM; IC50 [7]: 320 nM; IC50 (Cytochrome P450 2D6): 1500 nM; IC50 (Cytochrome P450 1A2): 34000 nM; IC50 (Cytochrome P450 3A4): 5500 nM
FC(F)(F)c1ccc(Sc2ccccc2N2CCNCC2)cc1 | 140 nM | 6.9 nM | 240 nM | 
Cc1ccccc1Sc1ccccc1N1CCNCC1 | 32 nM | 51 nM | 14 nM | 
Cc1ccc(Sc2ccccc2N2CCCNCC2)c(C)c1 | 27 nM | 130 nM |  | 
Cl.Clc1ccc(Sc2ccccc2N2CCNCC2)cc1 | 36 nM | 13 nM | 69 nM | bioavailability [13]: 26%; IC50 [14]: 190 nM; IC50 [15]: 45 nM; Ratio IC50 (Rattus norvegicus [16]): 3.5; CLH (Liver microsomes [2]): 70 mL/min; CLH (Liver microsomes [3]): 0.6 L/min; IC50 (Cytochrome P450 2C9): 31000 nM; Ratio IC50 (Rattus norvegicus [17]): 15; Ratio IC50 (Rattus norvegicus [4]): 12; Ratio IC50 (Rattus norvegicus [5]): 2.8; IC50 [6]: 160 nM; IC50 [7]: 37 nM; IC50 (Cytochrome P450 2D6): 400 nM; IC50 (Cytochrome P450 1A2): 53000 nM; IC50 (Cytochrome P450 3A4): 6800 nM; CLH (Rattus norvegicus [18]): 96.7 mL/min/kg
Clc1ccc(Sc2ccccc2N2CCNCC2)cc1Cl | 110 nM | 4.7 nM | 68 nM | 
Cc1ccc(Sc2cc(C)ccc2N2CCNCC2)c(C)c1 | 45 nM | 200 nM |  | 
COc1ccc(Sc2ccccc2N2CCNCC2)c(OC)c1 | 32 nM | 7.6 nM | 330 nM | 
Cc1ccc(Sc2c(C)cccc2N2CCNCC2)c(C)c1 | 670 nM | 540 nM | 540 nM | 
Cc1cccc(Sc2ccccc2N2CCNCC2)c1C | 29 nM | 4.4 nM |  | Ratio IC50 (Rattus norvegicus [4]): 20; Ratio IC50 (Rattus norvegicus [5]): 38; IC50 [7]: 170 nM; IC50 (Cytochrome P450 1A2): 24000 nM
Cc1ccc(Sc2ccccc2N2CCN(C)CC2)c(C)c1 | 130 nM | 680 nM | 120 nM | 
Cc1ccc(Sc2ccc(C)cc2N2CCNCC2)cc1 | 260 nM | 20 nM | 2800 nM | 
COc1cccc(Sc2ccccc2N2CCNCC2)c1 | 62 nM | 53 nM | 140 nM | 
Cc1ccc(Sc2ccccc2)c(N2CCNCC2)c1 | 310 nM | 150 nM | 1100 nM | 
